Measurements as given in PubChem BioAssay AID1626 (SRMLSC, 2009).

System: M. tuberculosis H37Rv growth inhibition
Assay: M. tuberculosis H37Rv growth inhibitors, H37Rv strain (AID 1626)
Settings: for CC50: measured here: Vero cell cytotoxicity; for IC90: measured here: IC90 against H37Rv

Row | SMILES | CC50 [µM] | IC50 [µM] | IC90 [µM]
1 | COc1ccccc1N1CCN(c2ncc(C(=O)N3CCN(c4cccc(Cl)c4)CC3)c3ccccc23)CC1 | > 40 |  | 
2 | CCSc1nnc(NC(=O)c2ccccn2)s1 | 8.14 | 0.315 | 0.466
3 | CC(=O)c1cccc(NC(=O)/C=C/c2ccc([N+](=O)[O-])s2)c1 | > 40 | 6.51 | 57.4
4 | O=C(NC1CCCCCCC1)c1ccccc1-c1ccccc1 |  | 57.1 | > 100
5 | COc1cc2c(cc1NCc1ccccn1)oc1ccccc12 |  | 3.09 | 21.4
6 | C/C(=C\C(=O)c1ccc(C)o1)Nc1ccc2c(c1)OCO2 |  |  | > 100
7 | Cc1ccc(Oc2cc(NC(=O)CCCn3nc([N+](=O)[O-])cc3C)cc([N+](=O)[O-])c2)cc1 | > 40 | 12.1 | 13.6
8 | COc1ccc(C)cc1N=Nc1ccc(O)c2ncccc12 | 2.01 | 31.8 | > 100
9 | Cc1cc(N2CCN(c3ccccc3)CC2)nc(-n2nc(C)cc2C)n1 | 18.3 | 8.84 | 47.3
10 | CCCCOC(=O)Nc1ccc(C(=O)OCCC)cc1 |  | 2.34 | > 100
11 | Cc1cc(=O)oc2cc(Oc3ccc([N+](=O)[O-])cc3C(F)(F)F)ccc12 |  | 12.2 | > 100
12 | COc1ccc(N=C2C(=O)N3CCCc4cccc2c43)cc1 |  |  | > 100
13 | CCCCCCCCn1c2c(c(=N)c3ccccc31)CCC2 | 9.55 | 6.24 | 9.17
14 | COc1ccc(NC(C#N)c2ccc(OC)cc2)cc1 (stereo not given) |  |  | > 100
15 | CC1CCC(C(C)C)C(OC(=O)Cn2c(-c3ccc(F)cc3)[n+](C)c3ccccc32)C1 (stereo not given) |  | 6.98 | 11.4
16 | Clc1ccc(COC(Cn2ccnc2)c2ccc(Cl)cc2Cl)c(Cl)c1 (stereo not given) | 36.8 | 2.85 | 3.27
17 | Cc1ccc(-c2ccc(SCC(=O)Nc3nonc3C)nn2)cc1 |  | 1.79 | 3.88
18 | CCOc1ccc(NC(=O)CSC2=NCCN2)cc1 |  | 11.6 | > 100
19 | O=C(c1ccc(F)cc1)C(CN1CCOCC1)c1ccccc1 (stereo not given) | 20.7 | 6.14 | 7.01
20 | Cc1cc(NC(=O)c2ccc(C)s2)n(-c2nc3ccccc3[nH]2)n1 | > 40 |  | 
21 | Cc1ccccc1OCC(=O)Nc1nc2ccccc2[nH]1 |  | 4.82 | 16.2

Row | SMILES | CC50 [µM] | IC50 [µM] | IC90 [µM]
22 | Cc1cccc(C(=O)Nc2nnc(-c3ccco3)o2)c1 | 37.1 | 0.695 | 3.56
23 | Cc1ccc(-c2nc(C(Cl)Cl)c3ccccc3n2)cc1 | 0.923 | 4.4 | 12.1
24 | CCOc1ccc(N/C(C)=C/C(=O)c2ccc(C)o2)cc1 |  | 13.3 | > 100
25 | C=C(C)C1Cc2c(C)nn(-c3nc(C)cc(C)n3)c2C1 (stereo not given) | > 40 | 10.1 | > 100
26 | O=C(/C=C/c1cccs1)Nc1cccc(NC(=O)/C=C/c2cccs2)n1 | 28 | 10.4 | > 100
27 | CCCOC(=O)c1ccc(NC(=O)C2C3C=CC(O3)C2C(=O)O)cc1 (stereo not given) |  | 35.2 | > 100
28 | CCOC(=O)N1CCN(CCC(=O)Nc2ccc(C)c(Br)c2)CC1 |  | 6.69 | 26.2
29 | O=C(CCN1C(=O)C2CCCCC2C1=O)Nc1nc(-c2ccc(F)c(F)c2)cs1 (stereo not given) |  | 47.5 | > 100
30 | Cc1cccc(OCc2nnc(SCC(=O)OC3CCCCC3)o2)c1 |  | 1.25 | 5.46
31 | O=C(Nc1nnc(-c2ccc3c(c2)CCCC3)o1)c1ccc(Cl)cc1Cl | > 40 | 0.625 | 0.962
32 | Cc1ccccc1C(=O)Nc1nnc(-c2ccc(F)cc2)o1 | 39.1 | 1.11 | 3.78
33 | Nc1ccccc1SCC(=O)Nc1nc(-c2ccccc2)cs1 | > 40 |  | > 100
34 | N#C/C(=C(/O)CSc1nnc(Cc2cccs2)n1C1CCCCC1)c1nc2ccccc2[nH]1 |  |  | > 100
35 | COc1ccc(-c2cc(C(F)(F)F)n3ncc(C(=O)N4CCCCC4c4cccnc4)c3n2)cc1 (stereo not given) |  |  | > 100
36 | O=C(CCl)Nc1cn(-c2ccccc2)nc1-c1ccccc1 | 9.49 | 9.87 | 38.6
37 | CCOc1ccc(-c2cc(CCCC(=O)Nc3cccc(OC)c3)no2)cc1 | > 40 | 10.7 | > 100
38 | Cc1ccc(NCc2nnc(SCC(=O)OC3CCCCC3)o2)c(C)c1 |  | 0.332 | 1.59
39 | CCn1c(COc2cccc3ccccc23)nnc1SCC(=O)OC1CCCCC1 |  | 4.04 | 14.1
40 | CCc1nc(NCc2ccc3c(c2)OCO3)c2oc3ccccc3c2n1 | > 40 | 8.85 | 17
41 | O=C(OCc1nc2ccccc2s1)c1ccco1 |  | 32.7 | > 100
42 | O=C(Nc1ncc(Cc2ccccc2)s1)c1cccs1 | > 40 | 49 | > 100

Row | SMILES | CC50 [µM] | IC50 [µM] | IC90 [µM]
43 | COC(=O)CSc1cc(SCC(=O)OC)c(C#N)c(SCC(=O)OC)c1 |  | 0.785 | 2.61
44 | CC(=O)Nc1nnc(-c2ccc3c(c2)CCCC3)o1 | > 40 | 11.9 | 23
45 | Cc1cc(C(=O)c2ccc(C(C)(C)C)cc2)c(NC(=O)CCl)s1 | 27.2 | 19.5 | > 100
46 | c1ccc(-c2cc3c(N4CCN(c5ccccc5)CC4)ncnc3s2)cc1 |  | 11.3 | > 100
47 | CCOc1ccc(NCc2nnc(SCC(=O)Nc3cc(C)on3)n2-c2ccc(OC)cc2)cc1 |  | 35.3 | > 100
48 | CCOc1ccc2nc(SCC(=O)Nc3ccc4c(c3)OCO4)sc2c1 |  | 25 | > 100
49 | CNC1=C(N(C(C)=O)c2ccc(Br)cc2)C(=O)c2ccccc2C1=O | 10 | 0.654 | 2.54
50 | CCc1ccccc1NC(=O)c1ccc([N+](=O)[O-])s1 | > 40 |  | > 100
51 | COC(=O)c1cc(=O)n(-c2ccccc2)c(=Nc2ccccc2)s1 | 27.6 | 5.19 | 17.7
52 | O=C(C[n+]1cc(-c2ccccc2)n2c1CCC2)N1c2ccccc2Sc2ccccc21 |  | 22.5 | > 100
53 | CCOC(=O)C1(CCOc2ccccc2)CCN(C(=O)c2ccc(-n3cccn3)cc2)CC1 | > 40 | 27.2 | > 100
54 | O=C(c1ccc(CNc2c(N3CCCC3)c(=O)c2=O)cc1)N1CC=C(c2ccccc2)CC1 |  | 26.2 | > 100
55 | CC1CCc2nc(NC(=O)CN3CCN(c4ccccc4)CC3)sc2C1 (stereo not given) |  | 24.6 | > 100
56 | O=C(CSCC(=O)NC1CC1)Nc1ccc2ccccc2c1 |  | 5.37 | > 100
57 | Cc1ccc(C)c(SCC(=O)OC/C(O)=C(\C#N)c2nc3ccccc3[nH]2)c1 | > 40 | 3.09 | 4.9
58 | O=C(Oc1ccc2ccc(O)cc2c1)C1CCCCC1 |  |  | > 100
59 | O=C(/C=C/Nc1ccc(Oc2ccccc2Cl)cc1)c1ccco1 | > 40 |  | > 100
60 | O=[N+]([O-])c1ccc(-c2ccc(/C=N/O)o2)cc1 |  |  | > 100
61 | CCCC(=O)OCCNc1cc(SCc2ccco2)c2nonc2c1[N+](=O)[O-] |  | 4.2 | 9.07
62 | COc1ccc(Nc2nc(-c3ccc4c(c3)NC(=O)CO4)cs2)cc1 | > 40 | 10 | > 100
